The results in this text go back to patent US8648066B2 (Exelixis, Inc., priority 2009, dated 2014).

Some results are limits rather than exact numbers.

One may read the IC50 as the concentration at which inhibition is half-maximal.

For this experiment, the target named is mTOR/GbL/Raptor (mTORC1) (Homo sapiens, UniProt P42345). The experiment in a line: mTOR/GbL/Raptor (mTORC1) ELISA assay. The settings on record: phosphorylation of 4E-BP1; 0.2 nM mTORC1, 10 μM ATP; read-out: IC50 in this assay (mTORC1 ELISA). It is filed as biochemical. The method, boiled down:
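Human mTORC1 (0.2 nM) phosphorylated 50 nM His-tagged 4E-BP1 with 10 µM ATP in HEPES pH 7.2 containing 10 mM MnCl2, 120 min at ambient temperature. Substrate was captured on Ni-chelate plates; phospho-4E-BP1 was detected by primary antibody and HRP secondary with luminescence.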
Take `COc1ccc2c(N3CCOc4ccc(-c5cnc(NC(C)=O)s5)cc4C3)nc(C)nc2c1` [Example 293, N-(5-{4-[2-methyl-7-(methyloxy)quinazolin-4-yl]-2,3,4,5-tetrahydro-1,4-benzoxazepin-7-yl}-1,3-thiazol-2-yl)acetamide]: the IC50 is not below 2000 nM. In the case of `CCNc1nc2ccc(-c3ccc4c(c3)CN(c3nc(C)nc5cc(F)ccc35)CCO4)cc2[nH]1` [Example 295, N-ethyl-6-[4-(7-fluoro-2-methylquinazolin-4-yl)-2,3,4,5-tetrahydro-1,4-benzoxazepin-7-yl]-1H-benzimidazol-2-amine], the IC50 lay within 50 to 250 nM. With `COc1ccc2c(N3CCOc4ccc(-c5ccc6[nH]c(=O)[nH]c6c5)cc4C3)nc(C)nc2c1` [Example 296, 5-{4-[2-methyl-7-(methyloxy)quinazolin-4-yl]-2,3,4,5-tetrahydro-1,4-benzoxazepin-7-yl}-1,3-dihydro-2H-benzimidazol-2-one] the figure was not below 2000 nM; with `CC[C@H]1CCc2c(ncnc2N2CCOc3ccc(-c4cnc5nc([C@@H](C)N)[nH]c5c4)cc3C2)C1` [Example 297, (1R)-1-(6-{4-[(7S)-7-ethyl-5,6,7,8-tetrahydroquinazolin-4-yl]-2,3,4,5-tetrahydro-1,4-benzoxazepin-7-yl}-1H-imidazo[4,5-b]pyridin-2-yl)ethanamine], 50 to 250 nM; with `CC[C@H]1CCc2c(ncnc2N2CCOc3ccc(-c4cnc5nc([C@H](C)N)[nH]c5c4)cc3C2)C1` [Example 298, (1S)-1-(6-{4-[(7S)-7-ethyl-5,6,7,8-tetrahydroquinazolin-4-yl]-2,3,4,5-tetrahydro-1,4-benzoxazepin-7-yl}-1H-imidazo[4,5-b]pyridin-2-yl)ethanamine], 50 to 250 nM. For the compound `C[C@H](CO)CS(=O)(=O)c1cc(-c2ccc3c(c2)CN(c2ncnc4c2CC(C)(C)CC4)CCO3)cnc1N` [Example 299, (2R)-3-({2-amino-5-[4-(6,6-dimethyl-5,6,7,8-tetrahydroquinazolin-4-yl)-2,3,4,5-tetrahydro-1,4-benzoxazepin-7-yl]pyridin-3-yl}sulfonyl)-2-methylpropan-1-ol], the IC50 lay within 10 to 50 nM.

Consider `CC[C@@H](C)NCc1nc2c(c(N3CCOc4ccc(-c5cnc6nc(C)[nH]c6c5)cc4C3)n1)CC(C)(C)CC2` [Example 300, (2R)-N-({6,6-dimethyl-4-[7-(2-methyl-1H-imidazo[4,5-b]pyridin-6-yl)-2,3-dihydro-1,4-benzoxazepin-4(5H)-yl]-5,6,7,8-tetrahydroquinazolin-2-yl}methyl)butan-2-amine], for which the half-inhibitory concentration (IC50) was in the range of 10 to 50 nM. Regarding `C[C@@H](CO)CS(=O)(=O)c1cc(-c2ccc3c(c2)CN(c2ncnc4c2CC(C)(C)CC4)CCO3)cnc1N` [Example 301, (2S)-3-({2-amino-5-[4-(6,6-dimethyl-5,6,7,8-tetrahydroquinazolin-4-yl)-2,3,4,5-tetrahydro-1,4-benzoxazepin-7-yl]pyridin-3-yl}sulfonyl)-2-methylpropan-1-ol], the IC50 is 10 to 50 nM. For `COc1ccc2c(N3CCOc4ccc(-c5cnc(N)c([S+]([O-])C[C@@H](C)CO)c5)cc4C3)ncnc2c1` (stereo partly drawn) [Example 302, (2S)-3-[(2-amino-5-{4-[7-(methyloxy)quinazolin-4-yl]-2,3,4,5-tetrahydro-1,4-benzoxazolin-7-yl}pyridin-3-yl)sulfinyl]-2-methylpropan-1-ol], the IC50 was in the range of 250 to 1000 nM. For `COc1ccc2c(N3CCOc4ccc(-c5cnc(N)c(S(=O)(=O)C[C@@H](C)CO)c5)cc4C3)ncnc2c1` [Example 303, (2S)-3-[(2-amino-5-{4-[7-(methyloxy)quinazolin-4-yl]-2,3,4,5-tetrahydro-1,4-benzoxazepin-7-yl}pyridin-3-yl)sulfonyl]-2-methylpropan-1-ol], the IC50 fell in the range of 250 to 1000 nM. Regarding `CC[C@H](C)NCc1nc2c(c(N3CCOc4ccc(-c5cnc6nc(C)[nH]c6c5)cc4C3)n1)CC(C)(C)CC2` [Example 304, (2S)-N-({6,6-dimethyl-4-[7-(2-methyl-1H-imidazo[4,5-b]pyridin-6-yl)-2,3-dihydro-1,4-benzoxazepin-4(5H)-yl]-5,6,7,8-tetrahydroquinazolin-2-yl}methyl)butan-2-amine], the IC50 is not above 10 nM. As for `CC1(C)CCc2ncnc(N3CCOc4ccc(-c5cnc(N)c(S(=O)(=O)N6CC[C@@H](O)C6)c5)cc4C3)c2C1` [Example 305, (3R)-1-({2-amino-5-[4-(6,6-dimethyl-5,6,7,8-tetrahydroquinazolin-4-yl)-2,3,4,5-tetrahydro-1,4-benzoxazepin-7-yl]pyridin-3-yl}sulfonyl)pyrrolidin-3-ol], the figure is 10 to 50 nM; as for `CC1(C)CCc2ncnc(N3CCOc4ccc(-c5cnc(N6CC[C@H](N)C6)c(S(=O)(=O)N6CC[C@H](N)C6)c5)cc4C3)c2C1` [Example 306, (3S)-1-({2-[(3S)-3-aminopyrrolidin-1-yl]-5-[4-(6,6-dimethyl-5,6,7,8-tetrahydroquinazolin-4-yl)-2,3,4,5-tetrahydro-1,4-benzoxazepin-7-yl]pyridin-3-yl}sulfonyl)pyrrolidin-3-amine], 250 to 1000 nM; as for `CC1(C)CCc2ncnc(N3CCOc4ccc(-c5cnc(Cl)c(S(=O)(=O)N6CC[C@H](N)C6)c5)cc4C3)c2C1` [Example 307, (3S)-1-({2-chloro-5-[4-(6,6-dimethyl-5,6,7,8-tetrahydroquinazolin-4-yl)-2,3,4,5-tetrahydro-1,4-benzoxazepin-7-yl]pyridin-3-yl}sulfonyl)pyrrolidin-3-amine], 250 to 1000 nM. As for `CC1(C)CCc2nc(CO)nc(N3CCOc4ccc(-c5cnc6sc(N)nc6c5)cc4C3)c2C1` [Example 308, {4-[7-(2-amino[1,3]thiazolo[5,4-b]pyridin-6-yl)-2,3-dihydro-1,4-benzoxazepin-4(5H)-yl]-6,6-dimethyl-5,6,7,8-tetrahydroquinazolin-2-yl}methanol], the IC50 was not above 10 nM. As for `Cc1nc2ncc(-c3ccc4c(c3)CN(c3ncnc5c3CCC(CO)C5)CCO4)cc2[nH]1` (centres unmarked) [Example 309, {4-[7-(2-methyl-1H-imidazo[4,5-b]pyridin-6-yl)-2,3-dihydro-1,4-benzoxazepin-4(5H)-yl]-5,6,7,8-tetrahydroquinazolin-7-yl}methanol], the figure is 50 to 250 nM; as for `Cc1nc2cc(-c3ccc4c(c3)CN(c3nc(CO)nc(C)c3Cc3ccc(F)cc3)CCO4)ccc2[nH]1` [Example 310, {5-[(4-fluorophenyl)methyl]-4-methyl-6-[7-(2-methyl-1H-benzimidazol-5-yl)-2,3-dihydro-1,4-benzoxazepin-4(5H)-yl]pyrimidin-2-yl}methanol], not above 10 nM. Regarding `CC(=O)OCc1nc(C)c(Cc2ccc(F)cc2)c(N2CCOc3ccc(-c4ccc5[nH]c(C)nc5c4)cc3C2)n1` [Example 311, {5-[4(fluorophenyl)methyl]-4-methyl-6-[7-(2-methyl-1H-benzimidazol-5-yl)-2,3-dihydro-1,4-benzoxazepin-4(5H)-yl]pyrimidin-2-yl}methyl acetate], the IC50 is not above 10 nM. In the case of `Cc1nc2ncc(-c3ccc4c(c3)CN(c3nc(CO)nc5c3CC(C)(C)CC5)CCO4)cc2[nH]1` [Example 312, {6,6-dimethyl-4-[7-(2-methyl-1H-imidazo[4,5-b]pyridin-6-yl)-2,3-dihydro-1,4-benzoxazepin-4(5H)-yl]-5,6,7,8-tetrahydroquinazolin-2-yl}methanol], the IC50 was not above 10 nM. Consider `CC(=O)OCc1nc2c(c(N3CCOc4ccc(-c5cnc6nc(C)[nH]c6c5)cc4C3)n1)CC(C)(C)CC2` [Example 313, {6,6-dimethyl-4-[7-(2-methyl-1H-imidazo[4,5-b]pyridin-6-yl)-2,3-dihydro-1,4-benzoxazepin-4(5H)-yl]-5,6,7,8-tetrahydroquinazolin-2-yl}methyl acetate], for which the IC50 was not above 10 nM. With `CC1(C)CCc2ncnc(N3CCOc4ccc(-c5cnc(N)c(S(=O)(=O)N6CC(O)(CO)C6)c5)cc4C3)c2C1` [Example 314, 1-({2-amino-5-[4-(6,6-dimethyl-5,6,7,8-tetrahydroquinazolin-4-yl)-2,3,4,5-tetrahydro-1,4-benbzoxazepin-7-yl]pyridin-3-yl}sulfonyl)-3-(hydroxymethyl)azetidin-3-ol] the figure was 10 to 50 nM. As to `CC1(C)CCc2ncnc(N3CCOc4ccc(-c5cnc(N)c(S(=O)(=O)N6CC(O)C6)c5)cc4C3)c2C1` [Example 315, 1-({2-amino-5-[4-(6,6-dimethyl-5,6,7,8-tetrahydroquinazolin-4-yl)-2,3,4,5-tetrahydro-1,4-benzoxazepin-7-yl]pyridin-3-yl}sulfonyl)azetidin-3-ol], the IC50 was in the range of 10 to 50 nM. On to `CC1(C)CCc2ncnc(N3CCOc4ccc(-c5cnc(N)c(S(=O)(=O)N6CCCC(O)C6)c5)cc4C3)c2C1` (centres unmarked) [Example 316], for which the IC50 was in the range of 10 to 50 nM.

On to `CC1(C)CCc2ncnc(N3CCOc4ccc(-c5cnc(N)c(S(=O)(=O)N6CCC(O)CC6)c5)cc4C3)c2C1` [Example 317, 1-({2-amino-5-[4-(6,6-dimethyl-5,6,7,8-tetrahydroquinazolin-4-yl)-2,3,4,5-tetrahydro-1,4-benzoxazepin-7-yl]pyridin-3-yl}sulfonyl)piperidin-4-ol], for which the IC50 fell in the range of 50 to 250 nM.

Consider `CC1(C)CCc2ncnc(N3CCOc4ccc(-c5cnc(N)c(S(=O)(=O)N6CCC(O)C6)c5)cc4C3)c2C1` (centres unmarked) [Example 318], for which the IC50 was 10 to 50 nM. As for `CN(C)Cc1nc2c(c(N3CCOc4ccc(-c5ccc6[nH]c(C(F)F)nc6c5)cc4C3)n1)CC(C)(C)CC2` [Example 320], the 50% inhibitory concentration (IC50) was in the range of 10 to 50 nM. As to `Cc1nc(CN(C)C)nc(N2CCOc3ccc(-c4ccc5[nH]c(CF)nc5c4)cc3C2)c1Cc1ccc(F)cc1` [Example 321], the IC50 is not above 10 nM. As for `CN(C)Cc1nc2c(c(N3CCOc4ccc(-c5ccc6[nH]c(CF)nc6c5)cc4C3)n1)CC(C)(C)CC2` [Example 322], the figure is 10 to 50 nM; as for `COc1ccc(-c2ccc3c(c2)CN(c2nc(CN(C)C)nc4c2CC(C)(C)CC4)CCO3)cc1OC` [Example 323, 1-(4-{7-[3,4-bis(methyloxy)phenyl]-2,3-dihydro-1,4-benzoxazepin-4(5H)-yl}-6,6-dimethyl-5,6,7,8-tetrahydroquinazolin-2-yl)-N,N-dimethylmethanamine], 250 to 1000 nM.
